The target in assay [1] is rat TAAR1 (Rattus norvegicus (Rat), UniProt Q923Y9). The assay is described as follows: Radioligand binding assay on rat TAAR1.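 Note: stably transfected HEK293 cell membranes with a tritiated radioligand, 1 h incubation at 4 °C, nonspecific binding taken as binding with 10 µM unlabeled ligand.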
Experimental: (§1) For the generation of stably transfected cell lines HEK293 cells were transfected with the pIRESneo2 expression plasmids containing the TAAR coding sequences (described above) with Lipofectamine 2000 (Invitrogen) according to the instructions of the manufacturer, and 24 hrs post transfection the culture medium was supplemented with 1 mg/ml G418 (Sigma, Buchs, Switzerland). […] Radioligand Binding Assay on Rat TAAR1 Membrane Preparation and Radioligand Binding. […] Cells were released from culture flasks using trypsin/EDTA, harvested, washed twice with ice-cold PBS (without Ca^2+ and Mg^2+), pelleted at 1,000 rpm for 5 min at 4° C., frozen and stored at −80° C. Frozen pellets were suspended in 20 ml HEPES-NaOH (20 mM, pH 7.4) containing 10 mM EDTA and homogenized with a Polytron (PT 6000, Kinematica) at 14,000 rpm for 20 s. The homogenate was centrifuged at 48,000×g for 30 min at 4° C. Subsequently, the supernatant was removed and discarded, and the pellet resuspended in 20 ml HEPES-NaOH (20 mM, pH 7.4) containing 0.1 mM EDTA using the Polytron (20 s at 14,000 rpm). This procedure was repeated and the final pellet resuspended in HEPES-NaOH containing 0.1 mM EDTA and homogenized using the Polytron. Typically, aliquots of 2 ml membrane portions were stored at −80° C. With each new membrane batch the dissociation constant (Kd) was determined via a saturation curve. […] Nonspecific binding was defined as the amount of ^3[H]-(S)-4-[(ethyl-phenyl-amino)-methyl]-4,5-dihydro-oxazol-2-ylamine bound in the presence of 10 μM unlabeled ligand. All compounds were tested at a broad range of concentrations (10 pM to 10 μM) in duplicates. […] The 96 deep well plates were incubated for 1 hr at 4° C. Incubations were terminated by rapid filtration through Unifilter-96 plates (Packard Instrument Company) and glass filters GF/C (Perkin Elmer) presoaked for 1 hr in polyethylenimine (0.3%) and washed 3 times with 1 ml of cold binding buffer. After addition of 45 μl of Microscint 40 (PerkinElmer) the Unifilter-96 plate was sealed and after 1 hr the radioactivity counted using a TopCount Microplate Scintillation Counter (Packard Instrument Company). Radioligand Binding Assay on Mouse TAAR1 Membrane Preparation and Radioligand Binding. […] Cells were released from culture flasks using trypsin/EDTA, harvested, washed twice with ice-cold PBS (without Ca^2+ and Mg^2+), pelleted at 1,000 rpm for 5 min at 4° C., frozen and stored at −80° C. Frozen pellets were suspended in 20 ml HEPES-NaOH (20 mM, pH 7.4) containing 10 mM EDTA and homogenized with a Polytron (PT 6000, Kinematica) at 14,000 rpm for 20 s. The homogenate was centrifuged at 48,000×g for 30 min at 4° C. Subsequently, the supernatant was removed and discarded, and the pellet resuspended in 20 ml HEPES-NaOH (20 mM, pH 7.4) containing 0.1 mM EDTA using the Polytron (20 s at 14,000 rpm). This procedure was repeated and the final pellet resuspended in HEPES-NaOH containing 0.1 mM EDTA and homogenized using the Polytron. Typically, aliquots of 2 ml membrane portions were stored at −80° C. With each new membrane batch the dissociation constant (Kd) was determined via a saturation curve.
Assay [2] has as its target mouse TAAR1 (Mus musculus (Mouse), UniProt Q923Y8). The assay is described as follows: Radioligand binding assay on mouse TAAR1.
Experimental: as §1
[3] abbreviates: read-out: Ki (μM) rat, rat TAAR1, membranes of HEK-293 cells, radioligand displacement.
Where [4] appears, read: read-out: Ki (μM) mouse, mouse TAAR1, membranes of HEK-293 cells, radioligand displacement.

30 molecules from patent publication US9487501B2, “Pyrazole carboxamide compounds and uses thereof” (Hoffmann-La Roche Inc., priority 2012, dated 2016) can be followed below.

Where a name gives a salt, the structure may show the parent alone. Read-outs that look alike come from different tables or passages of the source.

For orientation: Ki means the dissociation constant of the complex between target and ligand, obtained from inhibition or displacement. The term Kd denotes a measure of binding affinity in units of concentration.

rat TAAR1, sequence (Q923Y9 whole entry): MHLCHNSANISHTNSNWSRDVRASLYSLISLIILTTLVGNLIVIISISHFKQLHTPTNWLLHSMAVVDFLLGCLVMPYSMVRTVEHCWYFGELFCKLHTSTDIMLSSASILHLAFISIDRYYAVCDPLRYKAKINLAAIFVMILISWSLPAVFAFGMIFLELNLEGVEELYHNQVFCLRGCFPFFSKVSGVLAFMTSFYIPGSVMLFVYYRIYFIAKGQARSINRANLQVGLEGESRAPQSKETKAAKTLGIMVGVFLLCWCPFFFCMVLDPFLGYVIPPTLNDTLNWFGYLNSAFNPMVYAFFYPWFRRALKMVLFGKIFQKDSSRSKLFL
mouse TAAR1, sequence (Q923Y8 whole entry): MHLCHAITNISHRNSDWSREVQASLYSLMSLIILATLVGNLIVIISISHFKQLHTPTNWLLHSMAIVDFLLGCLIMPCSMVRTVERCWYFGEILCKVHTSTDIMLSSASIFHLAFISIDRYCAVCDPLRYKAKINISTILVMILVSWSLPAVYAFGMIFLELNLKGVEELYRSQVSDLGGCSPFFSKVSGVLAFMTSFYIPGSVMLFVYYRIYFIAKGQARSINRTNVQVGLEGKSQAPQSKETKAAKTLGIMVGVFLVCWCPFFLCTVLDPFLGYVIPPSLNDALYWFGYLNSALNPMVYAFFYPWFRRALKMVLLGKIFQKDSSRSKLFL

For `O=C(Nc1ccc([C@H]2CNCCO2)cc1)c1cnn(-c2ncc(Cl)cn2)c1` [Example 30, (S)-1-(5-chloropyrimidin-2-yl)-N-(4-(morpholin-2-yl)phenyl)-1H-pyrazole-4-carboxamide hydrochloride], the Ki came out at 0.135 µM in assay [1] (setting [3]) and 0.0166 µM in assay [2] (setting [4]).
On the same counts, the results for `O=C(Nc1ccc([C@H]2CNCCO2)cc1)c1cnn(-c2cc(C(F)(F)F)ncn2)c1` [Example 44, (S)—N-(4-(morpholin-2-yl)phenyl)-1-(6-(trifluoromethyl)pyrimidin-4-yl)-1H-pyrazole-4-carboxamide hydrochloride] are 0.0041 µM and 0.0099 µM.
For `N#Cc1cc(F)ccc1-n1cc(C(=O)Nc2ccc([C@H]3CNCCO3)cc2)cn1` [Example 25, (S)-1-(2-cyano-4-fluorophenyl)-N-(4-(morpholin-2-yl)phenyl)-1H-pyrazole-4-carboxamide hydrochloride] the same measures were 0.0078 µM and 0.0082 µM.
On the same counts, the results for `O=C(Nc1ccc([C@H]2CNCCO2)cc1)c1cnn(-c2ccc(C(F)(F)F)nc2)c1` [Example 51, (S)—N-(4-(morpholin-2-yl)phenyl)-1-(6-(trifluoromethyl)pyridin-3-yl)-1H-pyrazole-4-carboxamide hydrochloride] are 0.0048 µM and 0.0064 µM.
As to `O=C(Nc1ccc([C@H]2CNCCO2)cc1)c1cnn(-c2ccnc(Cl)n2)c1` [Example 36, (S)-1-(2-chloropyrimidin-4-yl)-N-(4-(morpholin-2-yl)phenyl)-1H-pyrazole-4-carboxamide hydrochloride], the Ki in assay [1] (setting [3]) was 0.0054 µM; in assay [2] (setting [4]), 0.0086 µM.
For `O=C(Nc1ccc([C@@H]2CNCCO2)cc1)c1cnn(-c2ccc(F)cc2)c1` [Example 12, (R)-1-(4-fluorophenyl)-N-(4-(morpholin-2-yl)phenyl)-1H-pyrazole-4-carboxamide hydrochloride] the same measures were 0.0011 µM and 0.0012 µM.
For `O=C(Nc1ccc([C@H]2CNCCO2)cc1)c1cnn(-c2ccc(F)cc2)c1` [Example 4, (S)-1-(4-fluorophenyl)-N-(4-(morpholin-2-yl)phenyl)-1H-pyrazole-4-carboxamide hydrochloride] the same measures were 0.0033 µM and 0.0007 µM.
With `CCN(C[C@H]1COC(N)=N1)c1ccccc1` [reference compound], the Kd is about 2.3 nM in assay [1] (read-out: dissociation constant (Kd) of the radioligand, rat TAAR1 membranes, saturation curve) and about 0.7 nM in assay [2] (read-out: dissociation constant (Kd) of the radioligand, mouse TAAR1 membranes, saturation curve).
On to `O=C(Nc1ccc([C@H]2CNCCO2)cc1)c1cnn(-c2ccc(C(F)(F)F)cn2)c1` [Example 11, (S)—N-(4-(morpholin-2-yl)phenyl)-1-(5-(trifluoromethyl)pyridin-2-yl)-1H-pyrazole-4-carboxamide hydrochloride], for which the Ki in assay [1] (setting [3]) and in assay [2] (setting [4]) was 0.0023 µM throughout.
Take `O=C(Nc1ccc([C@H]2CNCCO2)cc1)c1cnn(-c2cnc(C(F)(F)F)nc2)c1` [Example 45, (S)—N-(4-(morpholin-2-yl)phenyl)-1-(2-(trifluoromethyl)pyrimidin-5-yl)-1H-pyrazole-4-carboxamide hydrochloride]: the Ki in assay [1] (setting [3]) was found to be 0.0059 µM; in assay [2] (setting [4]), 0.0214 µM.
`O=C(Nc1ccc([C@H]2CNCCO2)cc1)c1cnn(-c2cccc(F)c2)c1` [Example 5, (S)-1-(3-fluorophenyl)-N-(4-(morpholin-2-yl)phenyl)-1H-pyrazole-4-carboxamide hydrochloride]: the Ki is 0.0039 µM in assay [1] (setting [3]) and 0.0015 µM in assay [2] (setting [4]).
On the same counts, the results for `O=C(Nc1ccc([C@H]2CNCCO2)cc1)c1cnn(-c2ccc(OC(F)F)cc2)c1` [Example 21, (S)-1-(4-(difluoromethoxy)phenyl)-N-(4-(morpholin-2-yl)phenyl)-1H-pyrazole-4-carboxamide hydrochloride] are 0.004 µM and 0.0017 µM.
On the same counts, the results for `N#Cc1ccc(-n2cc(C(=O)Nc3ccc([C@H]4CNCCO4)cc3)cn2)c(F)c1` [Example 23, (S)-1-(4-cyano-2-fluorophenyl)-N-(4-(morpholin-2-yl)phenyl)-1H-pyrazole-4-carboxamide hydrochloride] are 0.007 µM and 0.0041 µM.
For `O=C(Nc1ccc(C2CCNC2)cc1)c1cnn(-c2ccc(OC(F)F)cc2)c1` (racemic) [Example 54, (RS)-1-(4-difluoromethoxy-phenyl)-1H-pyrazole-4-carboxylic acid (4-pyrrolidin-3-yl-phenyl)-amide], the inhibitory constant (Ki) in assay [1] is 0.0011 µM; in assay [2], 0.0016 µM.
Turning to `O=C(Nc1ccc([C@@H]2CNCCO2)cc1)c1cnn(-c2ccc(OC(F)F)cc2)c1` [Example 27, (R)-1-(4-(difluoromethoxy)phenyl)-N-(4-(morpholin-2-yl)phenyl)-1H-pyrazole-4-carboxamide hydrochloride], the Ki is 0.001 µM in assay [1] (setting [3]) and 0.0013 µM in assay [2] (setting [4]).
For `O=C(Nc1ccc([C@H]2CNCCO2)cc1)c1cnn(-c2cc(C3CC3)ncn2)c1` [Example 56, (S)-1-(6-cyclopropylpyrimidin-4-yl)-N-(4-(morpholin-2-yl)phenyl)-1H-pyrazole-4-carboxamide hydrochloride], the Ki in assay [1] (setting [3]) came out at 0.0052 µM; in assay [2] (setting [4]) it was 0.0051 µM.
For `O=C(Nc1ccc([C@H]2CNCCO2)cc1)c1cnn(-c2nccnc2Cl)c1` [Example 41, (S)-1-(3-chloropyrazin-2-yl)-N-(4-(morpholin-2-yl)phenyl)-1H-pyrazole-4-carboxamide hydrochloride] the same measures were 0.0814 µM and 0.0275 µM.
On the same counts, the results for `Cc1c(C(=O)Nc2ccc([C@H]3CNCCO3)cc2)cnn1-c1ccc(C#N)cc1` [Example 35, (S)-1-(4-cyanophenyl)-5-methyl-N-(4-(morpholin-2-yl)phenyl)-1H-pyrazole-4-carboxamide hydrochloride] are 0.167 µM and 0.0601 µM.
On the same counts, the results for `O=C(Nc1ccc([C@H]2CNCCO2)cc1)c1cnn(-c2ncc(C(F)(F)F)cc2F)c1` [Example 19, (S)-1-(3-fluoro-5-(trifluoromethyl)pyridin-2-yl)-N-(4-(morpholin-2-yl)phenyl)-1H-pyrazole-4-carboxamide hydrochloride] are 0.016 µM and 0.0135 µM.
On to `Cc1cncc(-n2cc(C(=O)Nc3ccc([C@H]4CNCCO4)cc3)cn2)n1` [Example 39, (S)-1-(6-methylpyrazin-2-yl)-N-(4-(morpholin-2-yl)phenyl)-1H-pyrazole-4-carboxamide hydrochloride], for which the Ki was 0.0435 µM in assay [1] (setting [3]) and 0.0088 µM in assay [2] (setting [4]).
For `O=C(Nc1ccc([C@H]2CNCCO2)cc1)c1cnn(-c2ccnc(C(F)(F)F)n2)c1` [Example 34, (S)—N-(4-(morpholin-2-yl)phenyl)-1-(2-(trifluoromethyl)pyrimidin-4-yl)-1H-pyrazole-4-carboxamide hydrochloride] the same measures were 0.0035 µM and 0.0054 µM.
For `N#Cc1ccc(-n2cc(C(=O)Nc3ccc([C@H]4CNCCO4)cc3)cn2)nc1` [Example 8, (S)-1-(5-cyanopyridin-2-yl)-N-(4-(morpholin-2-yl)phenyl)-1H-pyrazole-4-carboxamide hydrochloride] the same measures were 0.0147 µM and 0.0089 µM.
As to `Cc1nn(-c2ccc(OC(F)F)cc2)cc1C(=O)Nc1ccc([C@H]2CNCCO2)cc1` [Example 32, (S)-1-(4-(difluoromethoxy)phenyl)-3-methyl-N-(4-(morpholin-2-yl)phenyl)-1H-pyrazole-4-carboxamide hydrochloride], the Ki stood at 0.0002 µM in assay [1] (setting [3]) and 0.0008 µM in assay [2] (setting [4]).
On the same counts, the results for `Nc1c(C(=O)Nc2ccc([C@H]3CNCCO3)cc2)cnn1-c1ccc(F)cc1` [Example 2, (S)-5-amino-1-(4-fluorophenyl)-N-(4-(morpholin-2-yl)phenyl)-1H-pyrazole-4-carboxamide dihydrochloride] are 0.401 µM and 0.0144 µM.
For `COc1ccc(-n2cc(C(=O)Nc3ccc([C@H]4CNCCO4)cc3)cn2)cc1` [Example 3, (S)-1-(4-methoxyphenyl)-N-(4-(morpholin-2-yl)phenyl)-1H-pyrazole-4-carboxamide hydrochloride] the same measures were 0.0165 µM and 0.0025 µM.
For `N#Cc1nccnc1-n1cc(C(=O)Nc2ccc([C@H]3CNCCO3)cc2)cn1` [Example 52, (S)-1-(3-cyanopyrazin-2-yl)-N-(4-(morpholin-2-yl)phenyl)-1H-pyrazole-4-carboxamide hydrochloride] the same measures were 0.0451 µM and 0.0179 µM.
For `N#Cc1ccc(-n2cc(C(=O)Nc3ccc([C@@H]4CNCCO4)cc3)cn2)c(F)c1` [Example 49, (R)-1-(4-cyano-2-fluorophenyl)-N-(4-(morpholin-2-yl)phenyl)-1H-pyrazole-4-carboxamide hydrochloride], the Ki in assay [1] (setting [3]) was 0.0033 µM; in assay [2] (setting [4]), 0.0049 µM.
On the same counts, the results for `O=C(Nc1ccc([C@H]2CNCCO2)cc1)c1cnn(-c2cc(C(F)(F)F)ccn2)c1` [Example 14, (S)—N-(4-(morpholin-2-yl)phenyl)-1-(4-(trifluoromethyl)pyridin-2-yl)-1H-pyrazole-4-carboxamide hydrochloride] are 0.0019 µM and 0.0013 µM.
Take `O=C(Nc1ccc([C@H]2CNCCO2)cc1)c1cnn(-c2ncc(C(F)(F)F)cn2)c1` [Example 37, (S)—N-(4-(morpholin-2-yl)phenyl)-1-(5-(trifluoromethyl)pyrimidin-2-yl)-1H-pyrazole-4-carboxamide hydrochloride]: the figures for the inhibition constant Ki in assay [1] (setting [3]) and in assay [2] (setting [4]) were 0.0931 µM and 0.0615 µM, respectively.
Take `O=C(Nc1ccc([C@H]2CNCCO2)cc1)c1cnn(-c2cncc(Cl)n2)c1` [Example 33, (S)-1-(6-chloropyrazin-2-yl)-N-(4-(morpholin-2-yl)phenyl)-1H-pyrazole-4-carboxamide hydrochloride]: the Ki was 0.0068 µM in assay [1] (setting [3]) and 0.0032 µM in assay [2] (setting [4]).
